| Compound | melting point [°C] |
| --- | --- |
| CO[C@H]1O[C@@H](C)[C@@H]2[C@H](/C=C/[C@H]3CCC[C@H](C)N3C(=O)OC(C)(C)C)[C@H]3CCCC[C@@H]3C[C@H]12 | 90.5 to 92.5 |
| CCCC(=O)CC1NC(=O)c2ccsc2-n2cccc21 (stereo not drawn) | 186 |
| C[C@H](NC(=O)c1cccnc1Oc1cccnc1)c1cccs1 | 196 to 198 |
| Oc1cc(Br)cc(O)c1F | 83 to 86 |
| COC(=O)c1nc(C)n2c1CN=C(c1ccccc1Cl)c1cc(Cl)ccc1-2 | 225 to 227 |
| Cc1cccc(-n2nc(C)c3c(=O)c4ccccc4[nH]c32)n1 | 252 |
| N#Cc1ccc(-c2ccc(N3CC(CI)CC3=O)cc2)cc1 (stereo not drawn) | 178 to 179 |
| CN(C)C1(c2ccccc2)CCC(CNC(=O)N2CC=C(c3c[nH]c4ccc(Cl)cc34)CC2)CC1 (stereo not drawn) | 183 to 185 |
| Nc1ccc(Nc2cccc(O)c2)cc1 | 146 to 149 |
| Cc1ccc(Nc2ccc3c4c(cccc24)CC3)cc1 | 96.2 to 96.8 |
| Cc1c(NC(=O)c2ccc(C#CC3(O)CCC3)cc2)ccc2cc(CNCC3CCOCC3)n(C)c12 | 202 to 204 |
| Cn1c(Cl)c(C(=O)C(=O)N2CCCC2)c2ccc(Cl)cc21 | 174 to 175 |
| CCN(CCc1c[nH]c2ccc(F)cc12)C1COc2c(F)ccc(C(=O)NC)c2C1 (stereo not drawn) | 125 |
| Cc1csc(-c2ccc3c(=O)n(CC(C)C)c(CN)c(-c4ccccc4)c3c2)n1 | 162 to 163 |
| NC(=O)NN=Cc1ccc(OCC2CCCCC2)cc1 | 218 to 219 |
| C=CCOc1ccc(-c2cc(N)n[nH]2)cc1 | 158 to 159 |
| COc1cccc(/C=C/C(=O)/C=C/c2cccc(OC)c2OC)c1OC | 106 to 108 |
| CCCCC1(CCCC)CS(=O)(=O)c2ccc(N(C)C)cc2[C@@H](c2ccc(OCCCCCN(CC(=O)O)CC(=O)O)cc2)[C@H]1O | 148 to 162 |
| Cn1ncnc1COc1nc2c(-c3ccccc3)nncn2c1-c1cccc(Cl)c1 | 80 to 84 |
| O=C(Cc1ccccc1)Nc1cc(C(=O)O)cc(C(=O)O)c1 | > 300 |
| CCN(c1ccc(C)cc1)c1nc(=O)c2cccnc2s1 | 158 |
| O=C(NOCCO)c1ccc(F)c(F)c1Nc1ccc(I)cc1Cl | 173 to 175 |
| CC(=O)SCC(Cc1ccc(C)cc1)C(=O)Nc1cccc(C(=O)O)c1C (stereo not drawn) | 206 to 208 |
| O=C(Cc1ccc(C(=O)O)cc1)C(=O)c1ccccc1 | 192 to 195 |
| CN1Cc2c(-c3ncc(CN4CCCCC4)o3)ncn2-c2ccc(F)cc2C1=O | 191 to 193 |

| Compound | melting point [°C] |
| --- | --- |
| N#CNc1nnc(-c2ccc3occ(-c4cccc(OC(F)(F)F)c4)c3c2)o1 | 237 to 238 |
| O=Cc1ccc(C(=O)Nc2ccncc2)cc1 | 161 |
| Cc1cc(CCCCCCc2c(Cl)cc(C3=NCCO3)cc2Cl)on1 | 65 to 66 |
| COc1cc(C=CC(COc2ccccc2)=NO)ccc1O | 155 to 158 |
| Cc1ccc(C)n1-c1cc2[nH]c(=O)c(=O)n(CC(=O)O)c2cc1Cl | > 265 |
| COC(=O)c1cnc(C)n1C | 38 to 40 |
| Cc1cc(Nc2ccc(Cl)cc2)nc(-c2cccc(Cl)n2)n1 | 239 |
| Cc1ccc(-c2nc3ccc(Cl)nc3n2CC(=O)N(C)C)cc1 | 182 to 185 |
| COc1ccc(C2C3=C(COC3=O)Nc3ccc4cn[nH]c4c32)cc1[N+](=O)[O-] (stereo not drawn) | 217 to 218 |
| CC(C)(C)c1ccc(COc2cc(C(O)C#Cc3ccc(C(=O)O)cc3)cc3c2C(C)(C)CCC3(C)C)cc1 (stereo not drawn) | 254 |
| CCOC(=O)Cn1c2c(c3c(Cl)cc(Cl)cc31)CCN(C(=O)OC(C)(C)C)CC2 | 144 to 147 |
| CN1C(=O)Nc2ccccc2C12NC(=O)N(COCc1ccccc1)C2=O (stereo not drawn) | 226 to 227 |
| O=[N+]([O-])c1cc(-c2ccoc2)ccc1Nc1cccc(-n2ccnc2)n1 | 173 to 174 |
| OCc1ccc(-c2cn([C@H]3CN4CCC3CC4)nn2)cc1 | 200 |
| FC(F)(F)c1cc(Cl)c(-n2cc(C3CC3(Cl)Cl)nn2)c(Cl)c1 (stereo not drawn) | 134 to 136 |
| O=c1[nH]c2[nH]c3ccc(Cl)cc3c2c2ccccc12 | > 300 |
| CC1=C(C(=O)OCC2CCN(Cc3ccccc3)C2)C(c2cccc([N+](=O)[O-])c2)c2c(ccnc2OC(C)C)N1 (stereo not drawn) | 125 to 128 |
| N#CC(c1ccccc1)(c1ccccc1)C1CN(C2CCCCC2)C1 | 111 to 114 |
| CCCCCCCCCCCCCCCCCCCNC(=O)C1CSC(c2cccnc2)N1 (stereo not drawn) | 108 to 110 |
| Nc1nc2c(ncn2[C@@H]2CO[C@H](CO)[C@@H](O)C2)c(=O)[nH]1 | > 300 |
| CC1(N2C(=O)c3cccc(N)c3C2=O)CCC(=O)NC1=O (stereo not drawn) | 268 to 269 |
| COc1ccc(-c2ccc(Br)cc2N)cc1 | 128 to 130 |
| Cc1nc2c(N)nc3c(c2n1CC(C)(C)O)CCCC3 | 290 to 292 |
| CCOC(=O)Nc1cc(COC(=O)Oc2ccc(N(CCCl)CCCl)cc2)cc(Nc2c3ccccc3nc3ccccc23)c1 | 131 to 133 |
| CCCCc1sc(C(N)=O)c2c1-c1c(cnn1C)CC2 | 119 to 121 |

| Compound | melting point [°C] |
| --- | --- |
| COc1ccc(CNc2nc(CCC(=O)O)nc3sc(Cl)cc23)cc1Cl | 126 |
| CCn1ncc(OCc2ccc([Si](C)(C)C)cc2)c(Cl)c1=O | 122 to 125 |
| CCSc1ccc(-c2coc3ccc(-c4nnc(C)o4)cc23)c(Cl)c1 | 108 to 109 |
| O=C(c1ccc(F)cc1)C1CCN(CCCCl)CC1 | 66.5 to 68.5 |
| COc1ccc(N)cc1C(=O)NCc1ccc(C(F)(F)F)cc1 | 115 to 117 |
| N=C1SCCN1c1ccc(N)cc1 | 148 |
| C=CCNC(=O)Cn1c(-c2ccc(Cl)cc2)nc2cccnc21 | 208 to 209 |
| Cc1oc(-c2ccccc2)nc1CCc1noc(COc2cccc(CC(=O)O)c2)n1 | 93 to 94 |
| O=C(O)CCC(=O)N1CCN(c2ccccn2)CC1 | 125 to 127 |
| CCOC(=O)C1=C(N)NC(N)=C(C(=O)OC(C)C)C1c1ccccc1[N+](=O)[O-] (stereo not drawn) | 110 |
| OC(=S)CC(c1ccc(OCc2ccc3ccccc3n2)cc1)c1ccc(OCc2ccc3ccccc3n2)cc1 | 175 to 180 |
| COCCc1nc2c(N)nc3cc(OCc4cccc(N)c4)ccc3c2n1CC(C)(C)O | 203 to 206 |
| Cn1cncc1C(O)(c1ccc(I)cc1)c1ccc2c(c1)c(-c1cccc(Cl)c1)cc(=O)n2C (stereo not drawn) | 197 |
| CN1OC(c2ccc(Cl)cc2)CC1(Cn1ccnc1)c1ccco1 (stereo not drawn) | 99 to 101 |
| CCCc1c(OCCCOc2ccc(C(=O)O)cc2Cl)ccc(C(C)=O)c1O | 171 to 172 |
| CC12CC(=O)C3C(CCC4CC(O)CCC43C)C1CCC2C(=O)CCO (stereo not drawn) | 156 to 158 |
| N#Cc1cccc(NC(=O)Nc2ccc(-n3nc(C(F)(F)F)cc3C(F)(F)F)cc2)c1 | 204 to 205 |
| Cc1cccc(-c2sc(N)nc2-c2ccc3ncoc3c2)n1 | 188 to 190 |
| COc1cccc2sc(C3(O)CCN(C(=O)OC(C)(C)C)C(C)C3)cc12 (stereo not drawn) | 73 to 76 |
| CC(C)(S)C(=O)NC(=O)[C@@H](N)CS | 124 to 125 |
| COc1ccc(-c2cc(=Nc3c(C)cc(C)cc3C)n(C)c(=O)n2C)cc1OC | 68 to 70 |
| Oc1ccc2ccc(OCc3ccccc3)cc2c1 | 152 to 154 |
| Cc1ccc(-c2cccc3cc(Cc4cccc(C(F)(F)F)c4)sc23)cc1C(=O)NCC(N)=O | 143 to 144 |
| Cc1ccc(S(=O)(=O)Nc2ccc(C3SC(=O)NC3=O)cc2)cc1 (stereo not drawn) | 215 to 218 |
| O=c1[nH]c(N2CCNC(CO)C2)cc2c(Br)cccc12 (stereo not drawn) | > 230 |

| Compound | melting point [°C] |
| --- | --- |
| CCCc1c(OCCCCCc2c(Cl)ccc(O)c2O)ccc(C(=O)O)c1O | 178 to 181 |
| c1ccc(-c2ccc(-c3nc(-c4ccc(-c5ccccc5)cc4)nc(-c4ccc(-c5ccccc5)cc4)n3)cc2)cc1 | 283 |
| C[C@@H](NC(=O)OC(C)(C)C)C(=O)NCCCN1CCN(CCCNc2cccc3c2C(=O)c2ccccc2C3=O)CC1 | 78 to 80 |
| CN1CCN(c2cccc3c2C[C@H](NC(=O)c2ccc(C(F)(F)F)cc2)CO3)CC1 | 212 to 214 |
| Cc1cc(C)c2ncc(NC(=O)c3cc(C(C)C)c(O)c(C(C)C)c3)c(-c3ccccc3Cl)c2c1 | 237 to 238 |
| CCCCCCCCCCCCCCCCOc1ccc(C(C)=O)o1 | 72 to 76 |
| Nc1cccnc1Nc1ccccc1C(=O)c1ccc(F)cc1 | 122 |
| O=C(c1ccc(Cl)c(Cl)c1)N1CCC(Br)C(c2ccccc2)=N1 (stereo not drawn) | 168 to 169 |
| Fc1cccc(Cl)c1-c1cc(-c2ccc(Cl)cc2)nc2ncnn12 | 238 to 239 |
| O=C(NCc1ncc(O)c2ccccc12)c1ccccc1 | 130 to 131 |
| CC(=O)NC[C@H]1CN(c2ccc(-n3nccc3-c3ccc(C)cc3)c(F)c2)C(=O)O1 | 89.5 to 91.9 |
| COc1cccc(C(=O)Nc2ccc(OCCN3CCOCC3)c3ccccc23)c1 | 105 to 107 |
| CC(=O)Oc1ccc(Br)cc1Cc1cc(Cl)cc(Cc2cc(Br)ccc2O)c1OC(C)=O | 190 to 192 |
| COc1cc(C)cc2c1C(C)(C)CCC2(C)C | 49 to 50 |
| CC(=O)Nc1ccc(C=O)cc1F | 133 |
| O=C(Nc1cccnc1)c1cccc(-c2cccc3oc(Cc4cccc(C(F)(F)F)c4)cc23)c1 | 127 to 128 |
| CS(=O)(=O)CCNc1cc(C(c2cc(F)ccc2F)S(=O)(=O)c2ccc(Cl)cc2)c(Cl)cn1 (stereo not drawn) | 134 to 136 |
| COc1ccc2c(CC3=C(CC(=O)O)CCC3=O)cccc2c1C(F)(F)F | 59 to 61 |
| O=C(c1ccc(F)cc1)c1ccc2nc(Cl)nc(-c3cccc(Cl)c3)c2c1 | 138 |
| CC(C)CC1NC(C)(C)CNC1=O (stereo not drawn) | 112 to 115 |
| CC(C)N=C(NC#N)Nc1cc(Cl)cc(Cl)c1 | 156 to 158 |
| COCCOc1ccc(CCNC(=O)/C=C/c2cccs2)cc1S(N)(=O)=O | 140 |
| Cc1cc2cc(NC(=O)Nc3ccc(Cl)cc3)ccc2[nH]1 | 257 to 260 |

— a melting point compilation (Tetko et al.; mined from patent text by program, amines drawn as free bases though some values may be those of a salt)
